Assay [1] addresses T1, Tissue factor (Homo sapiens, UniProt P13726). As to the kind of experiment: Inhibition of TNF-alpha-induced tissue factor activity in HUVEC preincubated for 4 hrs assessed after 4 hrs of TNFalpha challenge by one stage clotting assay.
The target in assay [2] is T1, Tissue factor. As to the kind of experiment: Inhibition of LPS-induced tissue factor activity in HUVEC preincubated for 4 hrs assessed after 4 hrs of LPS challenge by one stage clotting assay.

T1 sequence (P13726 whole entry): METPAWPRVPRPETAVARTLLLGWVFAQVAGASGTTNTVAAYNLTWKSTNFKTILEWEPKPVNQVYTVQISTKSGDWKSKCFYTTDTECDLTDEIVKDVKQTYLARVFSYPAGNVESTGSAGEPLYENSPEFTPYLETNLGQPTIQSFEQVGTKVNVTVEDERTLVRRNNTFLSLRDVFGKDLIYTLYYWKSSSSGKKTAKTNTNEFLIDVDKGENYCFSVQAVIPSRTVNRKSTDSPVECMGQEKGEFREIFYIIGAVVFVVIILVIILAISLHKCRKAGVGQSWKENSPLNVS

As for `CC(=CC(C)C=CC(=O)NO)C(=O)c1ccc(N(C)C)cc1` (centres undefined), the IC50 at Tissue factor [1] is 0.03 µM. For `CCCC(=O)O`, the IC50 on Tissue factor [1] worked out at 2000 µM; at Tissue factor [2] it was 1000 µM. The matching figures for `CCC(=O)CCCCC[C@@H]1NC(=O)[C@H]2CCCCN2C(=O)[C@H]([C@@H](C)CC)NC(=O)[C@H](Cc2cn(OC)c3ccccc23)NC1=O` [(6S,9S,12S,14aR)-6-((S)-sec-Butyl)-9-(1-methoxy-1H-indol-3-ylmethyl)-12-(6-oxo-octyl)-decahydro-4a,7,10,13-tetraaza-benzocyclododecene-5,8,11,14-tetraone]: 0.2 µM and 0.15 µM.

As for `CCCC(CCC)C(=O)O` [Valproinsaeure], the figures for the IC50 against Tissue factor [1] and on Tissue factor [2] were 2000 µM and 1500 µM, respectively. The matching figures for `Nc1ccccc1NC(=O)c1ccc(CNC(=O)OCc2cccnc2)cc1` [benzamide-type inhibitor, 3]: 10 µM and 6 µM.

The IC50 is the concentration at which inhibition is half-maximal. Read a low IC50 as greater potency in that assay.
